The values that follow come from patent publication US8377911B2, “Diuretics” (Merck Sharp & Dohme Corp., priority 2009, dated 2013).

This experiment concerns Male beagle dogs. The experiment can be described thus: canine telemetry protocol, blood pressure reduction efficacy. Format: in vivo. The following applies: telemetered male beagle dogs, 3 mg/kg, oral gavage. As for the experimental part:
Compounds of the invention were evaluated for blood pressure reduction efficacy using the following canine telemetry protocol.
Male beagle dogs (approximately 1-3 years old) with a body weight of between 10 and 16 kg were surgically implanted with DSI radiotelemetry devices (model: TL11M2-D70-PCT). Briefly, under an inhalant anesthesia, isoflurane/oxygen mixture (1-3.5%/to effect), the body of the telemetry device was positioned and secured intra-abdominally. Subsequently, the arterial catheter of the telemetry device was passed subcutaneously to the inguinal area and introduced into the femoral artery and advanced to the level of the descending aorta. The catheter was secured with 2-0 silk ligatures. The muscle and underlying fascia was closed over the catheter using absorbable suture and the skin was closed using non-absorbable suture. The animals were allowed a minimum recovery period of 2 weeks between surgery and the evaluation of test compounds.
Compound evaluation consisted of a 3 day paradigm at a 3 mg/kg dose. On the first day, no compounds were administered during a 24 hour period of baseline data collection. Blood pressure and heart rate data were collected continuously for one minute periods at 10 minute intervals. On the days of compound administration half the animals received test article with the other half receiving the vehicle used for compound formulation. All test materials were administered by oral gavage in a volume of 1 mL/kg. Data are expressed either as raw values (mm Hg or beats per minute) or as the change from baseline (average value for about 12 hours in low activity period prior to dosing). Change is SBP (systolic blood pressure) and PP (pulse pressure) over time is shown below: […]

Consider `CCCC(C)ON=[N+]([O-])N1CCC[C@H]1C(=O)Oc1c(C)ncc2c1CO[C@H]2c1ccc(Cl)cc1` (stereo in doubt) [Example 9, (3S)-3-(4-Chlorophenyl)-6-methyl-1,3-dihydrofuro[3,4-c]pyridin-7-yl 1-[(Z)-pentan-2-yloxy-NNO-azoxy]-L-prolinate], for which the “ΔPP (pulse pressure), change from baseline, 1-6 h” value (“ΔPP … change from baseline, 1-6 h” for short) is listed as −10.6 mm Hg; the “ΔSBP (systolic blood pressure), change from baseline, 1-6 h” value (shortened to “ΔSBP … change from baseline, 1-6 h”) is given as −11.8 mm Hg; the “ΔPP (pulse pressure), change from baseline, 6-12 h” value (“ΔPP … change from baseline, 6-12 h” below) is reported as −5.2 mm Hg; the “ΔSBP (systolic blood pressure), change from baseline, 6-12 h” value (shortened to “ΔSBP … change from baseline, 6-12 h”) is given as −6.6 mm Hg. Further, the “ΔPP (pulse pressure), change from baseline, 12-18 h” value (“ΔPP … change from baseline, 12-18 h” for short) is on record as −2.5 mm Hg and the “ΔSBP (systolic blood pressure), change from baseline, 12-18 h” value (“ΔSBP … change from baseline, 12-18 h” for short) was 1.0 mm Hg.

`Cc1ncc2c(c1OC(=O)[C@@H]1CCCN1[N+]([O-])=NOCC(C)C)CO[C@H]2c1ccc(Cl)cc1` (stereo in doubt) [Example 5, (3S)-3-(4-Chlorophenyl)-6-methyl-1,3-dihydrofuro[3,4-c]pyridin-7-yl 1-[(Z)-2-methylpropoxy-NNO-azoxy]-L-prolinate]: the “ΔPP … change from baseline, 1-6 h” value is on record as −3.6 mm Hg; the “ΔSBP … change from baseline, 1-6 h” value is −2.4 mm Hg; the “ΔPP … change from baseline, 6-12 h” value is given as −1.7 mm Hg; the “ΔSBP … change from baseline, 6-12 h” value is listed as −2.6 mm Hg. Also, the “ΔPP … change from baseline, 12-18 h” value was −2.6 mm Hg and the “ΔSBP … change from baseline, 12-18 h” value is on record as −2.8 mm Hg.

On to `CCCCO/N=[N+](\[O-])N1CCC(C(=O)Oc2c(C)ncc3c2CO[C@H]3c2ccc(Cl)cc2)CC1` [Example 12, (3S)-3-(4-Chlorophenyl)-6-methyl-1,3-dihydrofuro[3,4-c]pyridin-7-yl 1-[(Z)-butoxy-NNO-azoxy]piperidine-4-carboxylate], for which the “ΔPP … change from baseline, 1-6 h” value is given as −12 mm Hg; the “ΔSBP … change from baseline, 1-6 h” value was −11 mm Hg; the “ΔPP … change from baseline, 6-12 h” value is −5.8 mm Hg; the “ΔSBP … change from baseline, 6-12 h” value is −5.8 mm Hg. Also, the “ΔPP … change from baseline, 12-18 h” value is listed as 0.8 mm Hg and the “ΔSBP … change from baseline, 12-18 h” value amounted to 3.3 mm Hg.

As to `Cc1ncc2c(c1OC(=O)[C@@H]1CCCN1[N+]([O-])=NOC1CCCCC1)CO[C@H]2c1ccc(Cl)cc1` (stereo in doubt) [Example 11, (3S)-3-(4-Chlorophenyl)-6-methyl-1,3-dihydrofuro[3,4-c]pyridin-7-yl 1-[(Z)-cyclohexyloxy-NNO-azoxy]-L-prolinate], the “ΔPP … change from baseline, 1-6 h” value is on record as −6.9 mm Hg; the “ΔSBP … change from baseline, 1-6 h” value is −9.3 mm Hg; the “ΔPP … change from baseline, 6-12 h” value is given as −2.3 mm Hg; the “ΔSBP … change from baseline, 6-12 h” value is given as −3.3 mm Hg. Moreover, the “ΔPP … change from baseline, 12-18 h” value came to 0.9 mm Hg and the “ΔSBP … change from baseline, 12-18 h” value was 3.9 mm Hg.

In the case of `CCCCON=[N+]([O-])N1CCC[C@H]1C(=O)Oc1c(C)ncc2c1CO[C@H]2c1ccc(Cl)cc1` (stereo in doubt) [Example 1, (3S)-3-(4-Chlorophenyl)-6-methyl-1,3-dihydrofuro[3,4-c]pyridin-7-yl 1-[(Z)-butoxy-NNO-azoxy]-L-prolinate], the “ΔPP … change from baseline, 1-6 h” value was −14.0 mm Hg; the “ΔSBP … change from baseline, 1-6 h” value is on record as −15.4 mm Hg; the “ΔPP … change from baseline, 6-12 h” value is reported as −6.4 mm Hg; the “ΔSBP … change from baseline, 6-12 h” value is on record as −6.2 mm Hg. The “ΔPP … change from baseline, 12-18 h” value is given as −3.2 mm Hg and the “ΔSBP … change from baseline, 12-18 h” value is −0.6 mm Hg.

Turning to `CC[C@H](C)CON=[N+]([O-])N1CCC[C@H]1C(=O)Oc1c(C)ncc2c1CO[C@H]2c1ccc(Cl)cc1` (stereo in doubt) [Example 10, (3S)-3-(4-Chlorophenyl)-6-methyl-1,3-dihydrofuro[3,4-c]pyridin-7-yl 1-((Z)-{[(2S)-2-methylbutyl]oxy}-NNO-azoxy)-L-prolinate], the “ΔPP … change from baseline, 1-6 h” value is 0.6 mm Hg; the “ΔSBP … change from baseline, 1-6 h” value is listed as −5.3 mm Hg; the “ΔPP … change from baseline, 6-12 h” value amounted to 3.4 mm Hg; the “ΔSBP … change from baseline, 6-12 h” value was −0.9 mm Hg. The “ΔPP … change from baseline, 12-18 h” value was determined as 3.8 mm Hg and the “ΔSBP … change from baseline, 12-18 h” value was −3.1 mm Hg.
